Reference: PubChem BioAssay (NCI)
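Cells were grown in 96-well plates and exposed to each compound for 48 hours at five concentrations; endpoints were interpolated linearly between bracketing concentrations, or set to the highest concentration if not reached. TGI marks complete inhibition of growth.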

How the values were obtained:
Assay in all cases: NCI anticancer screen, dose series, 48 h
M14 melanoma = tested on: M14 melanoma
NCI-H226 lung = tested on: NCI-H226 lung
OVCAR-4 ovarian = tested on: OVCAR-4 ovarian
OVCAR-8 ovarian = tested on: OVCAR-8 ovarian
OVCAR-5 ovarian = tested on: OVCAR-5 ovarian
UACC-257 melanoma = tested on: UACC-257 melanoma
SK-OV-3 ovarian = tested on: SK-OV-3 ovarian
NCI-H522 lung = tested on: NCI-H522 lung
CCRF-CEM leukemia = tested on: CCRF-CEM leukemia
HL-60(TB) leukemia = tested on: HL-60(TB) leukemia
SW-620 colon = tested on: SW-620 colon
UO-31 renal = tested on: UO-31 renal
MOLT-4 leukemia = tested on: MOLT-4 leukemia
HCT-15 colon = tested on: HCT-15 colon
NCI-H23 lung = tested on: NCI-H23 lung
DU-145 prostate = tested on: DU-145 prostate
MALME-3M melanoma = tested on: MALME-3M melanoma
K-562 leukemia = tested on: K-562 leukemia
LOX IMVI melanoma = tested on: LOX IMVI melanoma
CAKI-1 renal = tested on: CAKI-1 renal
MDA-N = tested on: MDA-N
ACHN renal = tested on: ACHN renal
BT-549 breast = tested on: BT-549 breast
HOP-92 NSCLC = tested on: HOP-92 NSCLC
IGROV1 ovarian = tested on: IGROV1 ovarian
SK-MEL-5 melanoma = tested on: SK-MEL-5 melanoma
SR leukemia = tested on: SR leukemia
MDA-MB-435 = tested on: MDA-MB-435
EKVX NSCLC = tested on: EKVX NSCLC
NCI/ADR-RES ovarian = tested on: NCI/ADR-RES ovarian
HOP-62 NSCLC = tested on: HOP-62 NSCLC
TK-10 renal = tested on: TK-10 renal
SF-268 CNS = tested on: SF-268 CNS
MCF7 breast = tested on: MCF7 breast
KM12 colon = tested on: KM12 colon
SN12C renal = tested on: SN12C renal
T-47D breast = tested on: T-47D breast
RXF 393 renal = tested on: RXF 393 renal
MDA-MB-231 breast = tested on: MDA-MB-231 breast
A549 NSCLC = tested on: A549 NSCLC
UACC-62 melanoma = tested on: UACC-62 melanoma
786-0 renal = tested on: 786-0 renal
RPMI-8226 leukemia = tested on: RPMI-8226 leukemia
SK-MEL-28 melanoma = tested on: SK-MEL-28 melanoma
NCI-H460 lung = tested on: NCI-H460 lung
HS 578T breast = tested on: HS 578T breast
HCC-2998 colon = tested on: HCC-2998 colon
HT29 colon = tested on: HT29 colon
SF-295 CNS = tested on: SF-295 CNS
COLO 205 colon = tested on: COLO 205 colon
PC-3 prostate = tested on: PC-3 prostate
SF-539 CNS = tested on: SF-539 CNS
SNB-75 CNS = tested on: SNB-75 CNS
SNB-19 CNS = tested on: SNB-19 CNS
OVCAR-3 ovarian = tested on: OVCAR-3 ovarian
U251 CNS = tested on: U251 CNS
HCT-116 colon = tested on: HCT-116 colon
A498 renal = tested on: A498 renal
SK-MEL-2 melanoma = tested on: SK-MEL-2 melanoma
LXFL 529 NSCLC = tested on: LXFL 529 NSCLC
KM20L2 colon = tested on: KM20L2 colon
XF 498 CNS = tested on: XF 498 CNS
SNB-78 CNS = tested on: SNB-78 CNS
DLD-1 colon = tested on: DLD-1 colon
DMS 273 small cell lung = tested on: DMS 273 small cell lung
HOP-18 NSCLC = tested on: HOP-18 NSCLC
M19-MEL melanoma = tested on: M19-MEL melanoma
DMS 114 small cell lung = tested on: DMS 114 small cell lung

CCOC(=O)C1=C(C)NC(=S)NC1c1cccc(O)c1 (stereo not drawn)
TGI (M14 melanoma): 60.5 µM | TGI (NCI-H226 lung): > 100 µM | TGI (OVCAR-4 ovarian): > 100 µM | TGI (OVCAR-8 ovarian): > 100 µM | TGI (OVCAR-5 ovarian): > 100 µM | TGI (UACC-257 melanoma): > 100 µM | TGI (SK-OV-3 ovarian): > 100 µM | TGI (NCI-H522 lung): 93.9 µM | TGI (CCRF-CEM leukemia): > 89.9 µM | TGI (HL-60(TB) leukemia): 77.5 µM | TGI (SW-620 colon): > 100 µM | TGI (UO-31 renal): > 100 µM | TGI (MOLT-4 leukemia): > 100 µM | TGI (HCT-15 colon): > 100 µM | TGI (NCI-H23 lung): > 100 µM | TGI (DU-145 prostate): > 100 µM | TGI (MALME-3M melanoma): > 100 µM | TGI (K-562 leukemia): > 100 µM | TGI (LOX IMVI melanoma): > 100 µM | TGI (CAKI-1 renal): > 100 µM | TGI (MDA-N): 39.3 µM | TGI (ACHN renal): > 100 µM | TGI (BT-549 breast): > 100 µM | TGI (HOP-92 NSCLC): > 84.3 µM | TGI (IGROV1 ovarian): > 100 µM | TGI (SK-MEL-5 melanoma): > 100 µM | TGI (SR leukemia): > 95.6 µM | TGI (MDA-MB-435): 38 µM | TGI (EKVX NSCLC): > 100 µM | TGI (NCI/ADR-RES ovarian): > 100 µM | TGI (HOP-62 NSCLC): > 100 µM | TGI (TK-10 renal): > 100 µM | TGI (SF-268 CNS): > 100 µM | TGI (MCF7 breast): > 100 µM | TGI (KM12 colon): > 100 µM | TGI (SN12C renal): > 95.3 µM | TGI (T-47D breast): > 100 µM | TGI (RXF 393 renal): 65.7 µM | TGI (MDA-MB-231 breast): > 90 µM | TGI (A549 NSCLC): > 100 µM | TGI (UACC-62 melanoma): > 96.6 µM | TGI (786-0 renal): > 100 µM | TGI (RPMI-8226 leukemia): > 97 µM | TGI (SK-MEL-28 melanoma): > 100 µM | TGI (NCI-H460 lung): > 100 µM | TGI (HS 578T breast): > 100 µM | TGI (HCC-2998 colon): > 90.4 µM | TGI (HT29 colon): > 100 µM | TGI (SF-295 CNS): 93.6 µM | TGI (COLO 205 colon): > 82.3 µM | TGI (PC-3 prostate): > 89.6 µM | TGI (SF-539 CNS): > 100 µM | TGI (SNB-75 CNS): > 95.4 µM | TGI (SNB-19 CNS): > 100 µM | TGI (OVCAR-3 ovarian): > 100 µM | TGI (U251 CNS): > 96.5 µM | TGI (HCT-116 colon): > 100 µM | TGI (A498 renal): 87.6 µM | TGI (SK-MEL-2 melanoma): 79 µM

CCOc1ccccc1NC(=O)/C=C1\NC(=O)CS1
TGI (M14 melanoma): > 100 µM | TGI (LXFL 529 NSCLC): > 100 µM | TGI (NCI-H226 lung): > 100 µM | TGI (OVCAR-4 ovarian): > 100 µM | TGI (OVCAR-8 ovarian): > 100 µM | TGI (OVCAR-5 ovarian): > 100 µM | TGI (SK-OV-3 ovarian): > 100 µM | TGI (NCI-H522 lung): > 100 µM | TGI (CCRF-CEM leukemia): > 100 µM | TGI (HL-60(TB) leukemia): > 100 µM | TGI (SW-620 colon): > 100 µM | TGI (UO-31 renal): > 100 µM | TGI (MOLT-4 leukemia): > 100 µM | TGI (NCI-H23 lung): > 100 µM | TGI (MALME-3M melanoma): > 100 µM | TGI (K-562 leukemia): > 100 µM | TGI (KM20L2 colon): > 100 µM | TGI (XF 498 CNS): > 100 µM | TGI (LOX IMVI melanoma): > 100 µM | TGI (CAKI-1 renal): > 100 µM | TGI (SNB-78 CNS): > 100 µM | TGI (HOP-92 NSCLC): > 100 µM | TGI (IGROV1 ovarian): > 100 µM | TGI (SK-MEL-5 melanoma): > 100 µM | TGI (EKVX NSCLC): > 100 µM | TGI (DLD-1 colon): > 100 µM | TGI (HOP-62 NSCLC): > 100 µM | TGI (TK-10 renal): > 100 µM | TGI (SF-268 CNS): > 100 µM | TGI (KM12 colon): > 100 µM | TGI (SN12C renal): > 100 µM | TGI (DMS 273 small cell lung): > 100 µM | TGI (RXF 393 renal): > 100 µM | TGI (A549 NSCLC): > 100 µM | TGI (UACC-62 melanoma): > 100 µM | TGI (786-0 renal): > 100 µM | TGI (RPMI-8226 leukemia): > 100 µM | TGI (SK-MEL-28 melanoma): > 100 µM | TGI (NCI-H460 lung): > 100 µM | TGI (HOP-18 NSCLC): > 100 µM | TGI (HCC-2998 colon): > 100 µM | TGI (HT29 colon): > 100 µM | TGI (M19-MEL melanoma): > 100 µM | TGI (SF-295 CNS): > 100 µM | TGI (COLO 205 colon): > 100 µM | TGI (SF-539 CNS): > 100 µM | TGI (SNB-75 CNS): 98.7 µM | TGI (SNB-19 CNS): > 100 µM | TGI (OVCAR-3 ovarian): > 100 µM | TGI (U251 CNS): > 100 µM | TGI (HCT-116 colon): > 100 µM | TGI (DMS 114 small cell lung): > 100 µM | TGI (A498 renal): > 100 µM | TGI (SK-MEL-2 melanoma): > 100 µM
